“And” between values parts separate entries of the source, which are not always exact repeats. Identical values can stand only once. Like-named read-outs stand apart in the source and are kept apart here.

The conditions of series [1]: cited from earlier work.
A short description of series [2]: Clinical pharmacokinetics of (R)-bicalutamide (Css, t1/2) in prostate cancer patients given bicalutamide 300-600 mg once daily (Example 1). The note with it: for Steady state plasma conc. geometric mean: (R)-bicalutamide. The format is in vivo, human. As to the method: Plasma samples were stored at −20° C. until analysis. […] Quantification of the enantiomers was achieved using ultra-violet absorbance.
Method: Assays were performed using 0.5 ml plasma aliquots. […] A further control compound (internal standard) was added to each sample, along with 1.5 ml of pH 7 0.05M phosphate buffer (Electronic Instruments Ltd.) and 6 mls of ethyl acetate. The samples were mixed and then centrifuged and a 5 ml aliquot of the ethyl acetate layer (upper layer) was removed and evaporated to dryness in a polypropylene tube. The residue was re-dissolved in 400 μl of water:acetonitrile (70:30 v/v).
The fraction was evaporated to dryness and reconstituted in 400 μl of an HPLC eluent; 0.02 M pH 7 phosphate buffer; acetonitrile (85:15 v/v). 200 μl of the reconstituted fraction was then injected onto the chiral chromatographic system.

The test system of a further series is serum PSA levels. Put plainly: Change in serum PSA levels in M0/M1 prostate cancer patients (Example 1). Type of series: in vivo, human. How it is done:
Patients had histologically or cytologically confirmed M0 (T3 or T4) or M1 prostate cancer and a PSA level ≧20 ng/mL.

Series [3] relates to advanced prostate cancer (M0 or M1). Put plainly: Survival (Kaplan-Meier time to death) versus castration in patients with advanced prostate cancer (Example 1). The note with it: 450-600 mg.
Method: Tolerability was similarly assessed at 450 mg/day (3 tablets) and 600 mg/day (4 tablets).
After objective disease progression, patients were followed up every 3 months for survival and/or adverse event data.
Results are presented as for both the overall patient population and also by disease stage (M0 or M1).

On to `C[C@](O)(CS(=O)(=O)c1ccc(F)cc1)C(=O)Nc1ccc(C#N)c(C(F)(F)F)c1` [R-Bicalutamide], for which, in series [1] (steady state), the “share of the total circulating enantiomers at steady state” value was “approximately 99%”.
On to “4′-cyano-α′,α′,α′-trifluoro-3-(4-fluorophenylsulphonyl)-2-hydroxy-2-methylpropiono-m-toluidide [Bicalutamide]”, for which the “Steady state plasma conc. geometric mean” value is 35 µg/mL in series [2] (300 mg once daily, 18 patients); 31 µg/mL in series [2] (450 mg once daily, 82 patients); 36 µg/mL in series [2] (600 mg once daily, 34 patients). In addition, the “plasma concentration of (R)-bicalutamide higher than with bicalutamide 150 mg” value in series [2] (doses ≥300 mg vs 150 mg (21.6 μg/mL)) is “approximately 50%”. Besides, the “plasma concentration of (R)-bicalutamide higher than with bicalutamide 200 mg” value in series [2] (doses ≥300 mg vs 200 mg (28.9 μg/mL)) is “approximately 15%”. For the same molecule, the “mean steady state plasma concentration of R-bicalutamide” value in series [2] (patients, conventional tablets, doses of 300 mg/day and above (300-600 mg)) is 31 to 36 µg/mL; in series [1] (patients, 150 mg daily), 21.6 µg/mL and 21 µg/mL. Moreover, the “t1/2 of (R)-bicalutamide” value in series [1] (bicalutamide doses of 10-200 mg) is 150 to 213 h. In addition, the “plasma concentration of (R)-bicalutamide (Css)” value in series [1] (patients, bicalutamide 200 mg) was 28900 ng/mL. In addition, the “percentage decrease in PSA” value in the series on serum PSA levels (Week 12, bicalutamide 300 mg) was 93%; with serum PSA levels (Week 12, bicalutamide 450 mg), 95%; with serum PSA levels (Week 12, bicalutamide 600 mg), 96%. The “percentage reduction in geometric mean PSA compared with castration group” value in the series on serum PSA levels (baseline to Week 4) was “greater percentage reductions in geometric mean PSA values”. The “events (deaths), share of patients” value in series [3] (M0 patients, 28/74) worked out at 37.8%; in series [3] (M1 patients, 43/63), 68.3%; in series [3] (all patients, median 5 years follow up, 71/137) it was 51.8%.

The values are drawn from patent US20080161404A1 (ASTRAZENECA AB, priority 2005, published 2008).
